Active and inactive are the calls of the source. The calls are words filed in the database; no cut-off is given here.
How the values were obtained:
Mus musculus [1] = assay: Hypoglycemic activity in KKAy diabetic mouse model assessed as decrease in PBG level at 1.6 mg/kg, po co-administered with maltose and measured after 15 mins by glucometer relative to control; type: functional; set-up: scale not given: the % may be the effect or the level left; details: 0.25 h
[2] = Self assembly property of the compound assessed as diameter at 2.5 x 10^-5 mol/L by dynamic light scattering spectrometric analysis; type: physicochemical; details: 25 µM; dose 2.5 10^-5mol/L
Mus musculus [3] = assay: Binding affinity to mouse alpha-glucosidase assessed as decrease in fluorescence intensity at 200 uM administered as Nile red complex in presence of miglitol by fluorescence spectra analysis
Mus musculus [4] = assay: Hypoglycemic activity in C57BL/6J mouse assessed as reduction in PBG level measured per DNJ unit at 0.8 mg/kg, po co-administered with maltose and measured at 15 to 30 mins by glucometer relative to control; type: functional; set-up: scale not given: the % may be the effect or the level left; details: time 15-30 min
[5] = Stability of compound assessed as fluorescence intensity at 2 x 10^-4 M administered as Nile red complex at pH 1.0 to 7.0 by fluorescence spectra analysis 9Rvb = 3548); type: physicochemical; details: pH 1, 200 µM; dose 2 10^-4M
Mus musculus [6] = assay: Relative hypoglycemic rate in C57BL/6J mouse assessed as molar reduction in PBG level by measuring fold change at 1.6 mg/kg, po co-administered with maltose and measured after 30 mins by glucometer relative to miglitol; type: functional; details: 0.5 h
Mus musculus [7] = assay: Hypoglycemic activity in C57BL/6J mouse assessed as decrease in PBG level at 1.6 mg/kg, po co-administered with maltose and measured after 30 mins by glucometer relative to control; type: functional; set-up: scale not given: the % may be the effect or the level left; details: 0.5 h
Mus musculus [8] = assay: Hypoglycemic activity in C57BL/6J mouse assessed as blood glucose level at 1.6 mg/kg, po co-administered with maltose and measured after 30 mins by glucometer (380.8 +/- 20.6 mg/dL); type: functional; details: 0.5 h
[9] = molecular target: Alpha-glucosidase (Saccharomyces cerevisiae S288c) (UniProt P53341+P38158+P07265); assay: Inhibition of Saccharomyces cerevisiae Alpha-glucosidase at 1 mM incubated for 10 mins by absorbance based microplate spectrophotometric analysis; type: protein assay
[10] = Drug uptake in C57/6J mouse kidney assessed as increase in fluorescence at 5 x 10^-5M, po administered as Nile red complex and measured after 4 hrs by fluorescence imaging analysis; type: ADME, organism-based; details: in vivo, dose 5 10^-5M
Mus musculus [11] = assay: Hypoglycemic activity in KKAy diabetic mouse model assessed as decrease in PBG level at 1.6 mg/kg, po co-administered with maltose and measured after 30 mins by glucometer relative to control; type: functional; set-up: scale not given: the % may be the effect or the level left; details: 0.5 h
Mus musculus [12] = assay: Hypoglycemic activity in C57BL/6J mouse assessed as blood glucose level at 0.8 mg/kg, po co-administered with maltose and measured after 15 mins by glucometer (380.8 +/- 20.6 mg/dl); type: functional; details: 0.25 h
[13] = Inhibition of C57BL/6J mouse Alpha-glucosidase incubated for 10 mins by Lineweaver-Burk plot analysis
Mus musculus [14] = assay: Hypoglycemic activity in C57BL/6J mouse assessed as blood glucose level at 0.8 mg/kg, po co-administered with maltose and measured after 30 mins by glucometer (380.8 +/- 20.6 mg/dL); type: functional; details: 0.5 h
[15] = Drug uptake in C57/6J mouse liver assessed as increase in fluorescence at 5 x 10^-5M, po administered as Nile red complex and measured after 4 hrs by fluorescence imaging analysis; type: ADME, organism-based; details: in vivo, dose 5 10^-5M
Mus musculus [16] = assay: Hypoglycemic activity in C57BL/6J mouse assessed as blood glucose level at 0.4 mg/kg, po co-administered with maltose and measured after 15 mins by glucometer (380.8 +/- 20.6 mg/dl); type: functional; details: 0.25 h
[17] = Self assembly property of the compound assessed as diameter at 7.5 x 10^-5 mol/L by dynamic light scattering spectrometric analysis; type: physicochemical; details: 75 µM; dose 7.5 10^-5mol/L
Mus musculus [18] = assay: Binding affinity to mouse alpha-glucosidase assessed as DNJ fluorescence intensity at 2 x 10^-4 M administered as Nile red complex in presence of DNJ by fluorescence spectra analysis (reference value: 1627); details: dose 2.0 10^-4M
Mus musculus [19] = assay: Hypoglycemic activity in C57BL/6J mouse assessed as decrease in PBG level at 0.8 mg/kg, po co-administered with maltose and measured after 30 mins by glucometer relative to control; type: functional; set-up: scale not given: the % may be the effect or the level left; details: 0.5 h
[20] = Self assembly property of compound assessed as Nilered-compound complex formation by measuring increase in fluorescence intensity by Nile red dye based fluorescence analysis; type: physicochemical
Mus musculus [21] = assay: Relative hypoglycemic rate in KKAy diabetic mouse model assessed as molar reduction in PBG level by measuring fold change at 1.6 mg/kg, po co-administered with maltose and measured after 30 mins by glucometer relative to miglitol; type: functional; details: 0.5 h
[22] = Toxicity in C57BL/6J mouse assessed as effect on heart morphology at 1.6 mg/kg, po co-administered with maltose for 7 days by Hematoxylin and eosin staining based analysis; type: organism-based; details: in vivo, 168 h, time 7 day
Mus musculus [23] = assay: Hypoglycemic activity in C57BL/6J mouse assessed as decrease in PBG level at 0.8 mg/kg, po co-administered with maltose and measured after 15 mins by glucometer relative to control; type: functional; set-up: scale not given: the % may be the effect or the level left; details: 0.25 h
[24] = Toxicity in C57BL/6J mouse assessed as effect on kidney morphology at 1.6 mg/kg, po co-administered with maltose for 7 days by Hematoxylin and eosin staining based analysis; type: organism-based; details: in vivo, 168 h, time 7 day
[25] = Inhibition of rice Alpha-glucosidase incubated for 10 mins by Lineweaver-Burk plot analysis; set-up: species or system Oryza sativa
[26] = Toxicity in C57BL/6J mouse assessed as effect on spleen morphology at 1.6 mg/kg, po co-administered with maltose for 7 days by Hematoxylin and eosin staining based analysis; type: organism-based; details: in vivo, 168 h, time 7 day
Mus musculus [27] = assay: Hypoglycemic activity in C57BL/6J mouse assessed as reduction in PBG level measured per DNJ unit at 1.6 mg/kg, po co-administered with maltose and measured at 15 to 30 mins by glucometer relative to control; type: functional; set-up: scale not given: the % may be the effect or the level left; details: time 15-30 min
[28] = Binding affinity to mouse alpha-glucosidase assessed as binding constant administered as Nile red complex by fluorescence spectra analysis
[29] = Self assembly property of the compound assessed as diameter at 2 x 10^-4 mol/L by dynamic light scattering spectrometric analysis; type: physicochemical; details: 200 µM; dose 2 10^-4mol/L
[30] = Self assembly property of compound in citric acid-phosphate buffer at pH 2 to 7 at 1 x 10^-4 M assessed as diameter by dynamic light scattering spectrometric analysis; type: physicochemical; details: pH 2, 100 µM, dose 1 10^-4M
[31] = Stability of compound in simulated gastric fluid assessed as fluorescence intensity at 2 x 10^-4 M administered as Nile red complex by fluorescence spectra analysis (reference value: 3548); type: ADME; details: simulated gi fluid, 200 µM; dose 2 10^-4M
[32] = Cytotoxicity against human GES1 cells assessed as viable cells at 125 uM incubated for 44 hrs by MTT assay relative to control; type: toxicity, cell-based; details: read-out: Activity
Mus musculus [33] = assay: Hypoglycemic activity in KKAy diabetic mouse model assessed as decrease in PBG level at 1.6 mg/kg, po co-administered with maltose and measured after 120 mins by glucometer relative to control; type: functional; set-up: scale not given: the % may be the effect or the level left; details: 2 h
Aspergillus niger = assay: Potency index, ratio of miglitol Ki to test compound Ki for inhibition of Aspergillus niger Alpha-glucosidase incubated for 10 mins by Lineweaver-Burk plot analysis

## CCCCCCCCCCCCCCCCCCNC(=O)CN(Cc1cn(CCCCCCN2C[C@H](O)[C@@H](O)[C@H](O)[C@H]2CO)nn1)C(=O)CN(Cc1cn(CCCCCCN2C[C@H](O)[C@@H](O)[C@H](O)[C@H]2CO)nn1)C(=O)CN(Cc1cn(CCCCCCN2C[C@H](O)[C@@H](O)[C@H](O)[C@H]2CO)nn1)C(=O)CN(Cc1cn(CCCCCCN2C[C@H](O)[C@@H](O)[C@H](O)[C@H]2CO)nn1)C(C)=O
Mus musculus [1]
  Activity: 6.6%
[2]
  Activity: 195 nm
Mus musculus [3]
  Activity: inactive
Mus musculus [4]
  Activity: 14.2%
[5]
  Flu intensity: 1001
Mus musculus [6]
  fold change (FC): 4
Mus musculus [7]
  Activity: 39.5%
Mus musculus [8]
  Activity: 230.4 mg/dL
[9]
  inhibition: inactive
[10]
  Drug uptake: Not Active
Mus musculus [11]
  Activity: 26.2%
Mus musculus [12]
  Activity: 326.5 mg/dL
[13]
  Ki: 2.7 µM
Mus musculus [14]
  Activity: 287.6 mg/dL
[15]
  Drug uptake: Not Active
Mus musculus [16]
  Activity: 347.8 mg/dL
[17]
  Activity: 243 nm
Mus musculus [18]
  Flu intensity: 2300
Mus musculus [19]
  Activity: 24.5%
[20]
  Activity: Dose-Dependent Effect
Mus musculus [21]
  fold change (FC): 6.9
[22]
  Activity: Non-Toxic
Mus musculus [23]
  Activity: 12.2%
[24]
  Activity: Non-Toxic
[25]
  Ki: 0.027 µM
[26]
  Activity: Non-Toxic
Mus musculus [27]
  Activity: 11.5%
[28]
  Ka: 5680 M⁻¹
[29]
  Activity: 285 nm
[30]
  Activity: 138 nm
[31]
  Flu intensity: 862
[32]
  viability at 44 h, 125 µM: > 80%
Mus musculus [33]
  Activity: 19.9%
Aspergillus niger
  Ratio Ki: 121
